Drawing on patent publication US8580794B2 (AbbVie Inc., priority 2009, dated 2013), this text covers Ki for 7 compounds.

By Ki is commonly meant the equilibrium dissociation constant of an inhibitor or competing ligand from its target.

Chain of GST-Bc1-2 (P10415 whole entry): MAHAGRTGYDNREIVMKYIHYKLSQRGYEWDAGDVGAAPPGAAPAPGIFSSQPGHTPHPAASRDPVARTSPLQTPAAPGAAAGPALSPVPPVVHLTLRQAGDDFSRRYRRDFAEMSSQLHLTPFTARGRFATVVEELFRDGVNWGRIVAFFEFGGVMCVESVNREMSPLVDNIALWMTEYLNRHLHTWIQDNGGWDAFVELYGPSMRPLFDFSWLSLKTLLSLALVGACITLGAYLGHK

This test addresses GST-Bc1-2 (Homo sapiens, UniProt P10415). Kind of test: Time Resolved-Fluorescence Resonance Energy Transfer (TR-FRET) Bcl-2 binding assay with F-Bak peptide probe. As to conditions: GST-Bcl-2 1 nM, F-Bak probe 100 nM, Tb-anti-GST 1 nM; '<' = below limit of detection; read-out: TR-FRET Bcl-2 Binding Ki. (Time-resolved FRET reads energy transfer from a long-lived donor to a nearby acceptor.)
Take `CC1(C)CCC(CN2CCN(c3ccc(C(=O)NS(=O)(=O)c4cnc(OCC(C)(CO)CO)c(Cl)c4)c(Oc4cnc5[nH]ccc5c4)c3)CC2)=C(c2ccc(Cl)cc2)C1` [Example 250, N-({5-chloro-6-[3-hydroxy-2-(hydroxymethyl)-2-methylpropoxy]pyridin-3-yl}sulfonyl)-4-(4-{[2-(4-chlorophenyl)-4,4-dimethylcyclohex-1-en-1-yl]methyl}piperazin-1-yl)-2-(1H-pyrrolo[2,3-b]pyridin-5-yloxy)benzamide]: the Ki came to 0.412 nM.

Turning to `CC1(C)CCC(CN2CCN(c3ccc(C(=O)NS(=O)(=O)c4ccc(OCC5(F)CCOCC5)nc4)c(Oc4cnc5[nH]ccc5c4)c3)CC2)=C(c2ccc(Cl)cc2)C1` [Example 251, 4-(4-{[2-(4-chlorophenyl)-4,4-dimethylcyclohex-1-en-1-yl]methyl}piperazin-1-yl)-N-({6-[(4-fluorotetrahydro-2H-pyran-4-yl)methoxy]pyridin-3-yl}sulfonyl)-2-(1H-pyrrolo[2,3-b]pyridin-5-yloxy)benzamide], the Ki was found to be 0.571 nM.

Regarding `CC1(C)CCC(CN2CCN(c3ccc(C(=O)NS(=O)(=O)c4ccc(NCC5CN(C(CF)CF)CCO5)c([N+](=O)[O-])c4)c(Oc4cnc5[nH]ccc5c4)c3)CC2)=C(c2ccc(Cl)cc2)C1` (stereo not shown) [Example 252, 4-(4-{[2-(4-chlorophenyl)-4,4-dimethylcyclohex-1-en-1-yl]methyl}piperazin-1-yl)-N-{[4-({[4-(1,3-difluoropropan-2-yl)morpholin-2-yl]methyl}amino)-3-nitrophenyl]sulfonyl}-2-(1H-pyrrolo[2,3-b]pyridin-5-yloxy)benzamide], the Ki is < 0.01 nM.

Consider `CC1(C)CCC(CN2CCN(c3ccc(C(=O)NS(=O)(=O)c4cnc(OCC5CCN(CC#N)CC5)c(Cl)c4)c(Oc4cnc5[nH]ccc5c4)c3)CC2)=C(c2ccc(Cl)cc2)C1` [Example 253, N-[(5-chloro-6-{[1-(cyanomethyl)piperidin-4-yl]methoxy}pyridin-3-yl)sulfonyl]-4-(4-{[2-(4-chlorophenyl)-4,4-dimethylcyclohex-1-en-1-yl]methyl}piperazin-1-yl)-2-(1H-pyrrolo[2,3-b]pyridin-5-yloxy)benzamide], for which the inhibition constant (Ki) turned out to be 0.052 nM. Under `COCCOCCN1CC[C@@H](Nc2ccc(S(=O)(=O)NC(=O)c3ccc(N4CCN(CC5=C(c6ccc(Cl)cc6)CC(C)(C)CC5)CC4)cc3Oc3cnc4[nH]ccc4c3)cc2[N+](=O)[O-])C1` [Example 254, 4-(4-{[2-(4-chlorophenyl)-4,4-dimethylcyclohex-1-en-1-yl]methyl}piperazin-1-yl)-N-{[4-({(3R)-1-[2-(2-methoxyethoxy)ethyl]pyrrolidin-3-yl}amino)-3-nitrophenyl]sulfonyl}-2-(1H-pyrrolo[2,3-b]pyridin-5-yloxy)benzamide] stands < 0.01 nM. Under `CN(C)CC(=O)N1CC[C@@H](Nc2ccc(S(=O)(=O)NC(=O)c3ccc(N4CCN(CC5=C(c6ccc(Cl)cc6)CC(C)(C)CC5)CC4)cc3Oc3cnc4[nH]ccc4c3)cc2[N+](=O)[O-])C1` [Example 255, 4-(4-{[2-(4-chlorophenyl)-4,4-dimethylcyclohex-1-en-1-yl]methyl}piperazin-1-yl)-N-[(4-{[(3R)-1-(N,N-dimethylglycyl)pyrrolidin-3-yl]amino}-3-nitrophenyl)sulfonyl]-2-(1H-pyrrolo[2,3-b]pyridin-5-yloxy)benzamide] stands < 0.01 nM; under `CC1(C)CCC(CN2CCN(c3ccc(C(=O)NS(=O)(=O)c4ccc(NC5CN(C6COC6)C5)c([N+](=O)[O-])c4)c(Oc4cnc5[nH]ccc5c4)c3)CC2)=C(c2ccc(Cl)cc2)C1` [Example 256, 4-(4-{[2-(4-chlorophenyl)-4,4-dimethylcyclohex-1-en-1-yl]methyl}piperazin-1-yl)-N-[(3-nitro-4-{[1-(oxetan-3-yl)azetidin-3-yl]amino}phenyl)sulfonyl]-2-(1H-pyrrolo[2,3-b]pyridin-5-yloxy)benzamide], < 0.01 nM.
